Experimental data as given in PMC4841555, “Optimization of the All-D Peptide D3 for Aβ Oligomer Elimination” (PLoS ONE, 2016).
Non-standard residues stand in square brackets, D forms with d. Residues, ends and D or L forms follow the SMILES beside them.

Experiments:
Type in all cases: biochemical
Aβ(1–42) = target: T1, Aβ(1–42) (Homo sapiens, UniProt P05067); experiment: Aβ aggregation inhibition ELISA; conditions: 400 nM Aβ(1–42), 500 mM Tris pH 7.4, 23 h, 37°C, aggregate-specific ELISA, logistic fit, three independent experiments; read-out: EC50 of inhibition of Aβ aggregate formation
T1 construct: Aβ(1–42), N-terminally biotinylated Aβ(1–42) and FITC-Aβ(1–42) were purchased from Bachem; purchased Bachem (Heidelberg, Germany)
T1 sequence (P05067 672-713 limits assumed): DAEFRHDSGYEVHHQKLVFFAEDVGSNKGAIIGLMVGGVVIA
Description: Freshly dissolved monomeric Aβ(1–42) (400 nM in 500 mM Tris-buffer pH 7.4) was incubated with and without DB peptides in different concentrations (0.01, 0.05, 0.1, 0.5, 1, 5, 10, 50 and 100 μM for DB3 or half of the molar concentrations in case of DB3DB3) in a humidity chamber for 23 h at 37°C. The aggregation was analyzed by an enzyme-linked immunosorbent assay (ELISA). NP27 antibody in bicarbonate/carbonate buffer was used to coat the ELISA plate overnight. Then the plate was washed in PBS-Tween buffer (1x PBS + 0.05% Tween) and blocked for 2 h at room temperature with 5% casein buffer. After washing, Aβ aggregate solutions were added to the plate and incubated for 1 h at room temperature. The plate was washed again and bound Aβ aggregates were detected by biotinylated 6E10/HRP-avidin mediated immunoreaction (BioLegend, San Diego, CA USA) using TMB as detection reagent. […] Mean value and standard error were calculated from three independent experiments. EC50 was calculated by fitting the data to a logistic dose response function.
Fig 5 Inhibition of Aβ fibril formation and Aβ aggregation disassemble by DB3 and DB3DB3. A) Monomeric Aβ(1–42) (400 nM) was mixed with different concentrations of DB3 (0.01, 0.05, 0.1, 0.5, 1, 5, 10, 50, 100 μM) and the aggregation state of Aβ was analyzed using an Aβ aggregate specific ELISA. […] All data were determined in triplicate. […]

Aβ(1–42) oligomers = target: T2, Aβ(1–42) oligomers (Homo sapiens, UniProt P05067); experiment: QIAD assay (Aβ oligomer elimination); conditions: 20 μM DB3, 80 μM Aβ(1–42) preincubated 4.5 h, 40 min with peptide, density gradient centrifugation, RP-HPLC, vs Aβ only control, triplicate
T2 construct: Aβ(1–42), N-terminally biotinylated Aβ(1–42) and FITC-Aβ(1–42) were purchased from Bachem; purchased Bachem (Heidelberg, Germany)
T2 sequence (P05067 672-713 limits assumed): as above
Description: The quantitative determination of interference with Aβ(1–42) aggregate size distribution (QIAD) was performed as described before. In brief, 80 μM Aβ(1–42) was incubated in 10 mM sodium phosphate buffer, pH 7.4 for 4.5 h at 22°C with 600 rpm agitation. Aβ(1–42) aggregation was continued for an additional 40 min with or without DB peptide. The obtained partial size distribution was analyzed by applying density gradient centrifugation. 100 μl of the incubated sample was placed on top of a gradient with 5 to 50% iodixanol (Optiprep, Axis-shield, Oslo, Norway) and separated at 259.000 x g for 3 h at 4°C using an ultracentrifuge (Optima MAX-XP, Beckman Coulter, Brea, USA). Fourteen fractions of 140 μl were taken from top to bottom. […] For quantification of the Aβ(1–42) amount in each fraction, reversed-phase high performance liquid chromatography (RP-HPLC) was performed using a Zorbax SB-300 C8 column (Agilent, Böblingen, Germany) connected to an Agilent 1260 Infinity system using 30% (v/v) acetonitrile with 0.1% (v/v) trifluoroacetic acid (TFA) as the mobile phase with a flow of 1 ml/min and a column temperature of 80°C. […] The UV absorption at 214 nm was measured. For quantification of the Aβ(1–42) amount, the area under the peak representing Aβ(1–42) was calculated and the molar concentration was determined using a calibration curve. […]

[1] = target: T3, preformed Aβ(1–42) aggregates (Homo sapiens, UniProt P05067); experiment: Aβ aggregate disassembly ELISA; conditions: 400 nM Aβ(1–42) preincubated 22 h at 37°C, then with peptide 22 h (24 h) at 37°C, ELISA, triplicate
T3 construct: Aβ(1–42), N-terminally biotinylated Aβ(1–42) and FITC-Aβ(1–42) were purchased from Bachem; purchased Bachem (Heidelberg, Germany)
T3 sequence (P05067 672-713 limits assumed): as above
Description: Freshly dissolved monomeric Aβ(1–42) (400 nM in 500 mM Tris-buffer pH 7.4) was incubated in a humidity chamber for 22 h at 37°C in order to preform Aβ(1–42) aggregates. These preformed aggregates were coincubated with D-peptide in different concentrations (0.01, 0.05, 0.1, 0.5, 1, 5, 10, 50, 100 μM for DB3 or with half of the molar concentrations in case of DB3DB3) for additional 22 h at 37°C. The content of Aβ aggregates was measured and evaluated in the same way as the aggregation inhibition ELISA.
Fig 5 Inhibition of Aβ fibril formation and Aβ aggregation disassemble by DB3 and DB3DB3. A) Monomeric Aβ(1–42) (400 nM) was mixed with different concentrations of DB3 (0.01, 0.05, 0.1, 0.5, 1, 5, 10, 50, 100 μM) and the aggregation state of Aβ was analyzed using an Aβ aggregate specific ELISA. For DB3DB3 half of the molar concentrations compared to DB3 were used. Aβ without DB3 and DB3DB3 addition was taken as control. For DB3 an EC50 of 6 μM was calculated using a logistic fit model. DB3DB3 inhibited the formation of Aβ fibrils more efficiently with an EC50 of 7 nM. B) The disassembly properties of DB3 and DB3DB3 were measured using an Aβ aggregation specific ELISA. Monomeric Aβ(1–42) (400 nM) was preincubated in order to form fibrils and mixed with nine different concentrations of DB3 (0.01, 0.05, 0.1, 0.5, 1, 5, 10, 50, 100 μM). For DB3DB3, the molar concentrations were half those used for DB3. […] DB3DB3 disassembled Aβ aggregates at the lowest concentration […]. Thus, the EC50 could not be determined, but is < 10 nM. All data were determined in triplicate. The Mann-Whitney-U-test was performed for statistical analysis. * p< 0.05; ** p < 0.01; *** p < 0.001
The Aβ aggregate disassembly ELISA was used to analyze the effect of DB3 and DB3DB3 on preformed Aβ aggregates (Fig 5B). […] The Aβ aggregates specific ELISA was used to quantify Aβ aggregates. […] The results of measured Aβ aggregates normalized to the Aβ control were plotted against the peptide concentration. The EC50 was calculated by a logarithmic dose response function.

EC50 (Aβ(1–42)): 6 µM | reduction of the amount of Aβ oligomers (Aβ(1–42) oligomers): ~ 27% | EC50 [1]: 2.5 µM
Compound: CC[C@@H](C)[C@@H](NC(=O)[C@H]1CCCN1C(=O)[C@H](N)CCCNC(=N)N)C(=O)N[C@@H](C(=O)N[C@H](CCCNC(=N)N)C(=O)N[C@H](CC(C)C)C(=O)N[C@H](CCCNC(=N)N)C(=O)N[C@@H](C(=O)N[C@H](Cc1c[nH]cn1)C(=O)N[C@H](CCC(N)=O)C(=O)N[C@H](CC(N)=O)C(=O)N[C@H](CCCNC(=N)N)C(N)=O)[C@H](C)O)[C@H](C)O [DB3] (H-[dR][dP][dI][dT][dR][dL][dR][dT][dH][dQ][dN][dR]-NH2)
